In US20080020998A1, “Sustained release compositions for the therapeutic management of pain, inflammation and inflammation-associated disorders and prophylactic/ therapeutic methods thereof” (priority 2006, published 2008):

Key:
[1] = tested on: patients with osteoarthritis of the knee; experiment: Double blind, randomized study in osteoarthritis of the knee: VAS assessment of pain, stiffness and swelling; assay type: in vivo, human; settings: twice-daily for 90 days, VAS scored 0 to 10, baseline vs end of 90 days
Description: The institutional ethics committee approved the study protocol. Patients were recruited from the orthopaedic outpatient clinic of a tertiary care hospital. Consecutive outpatients of either sex, aged between 40-65 years in ARA functional class I, II or III and radiologically diagnosed to have osteoarthritis of the knee were identified. Clinically pain or discomfort should have been experienced in the affected knee on most days for the previous 3 months. Of these, patients already undergone knee arthroplasty, taken glucosamine in the previous 3 months or any intraarticular injection within previous month, having renal and/or hepatic disease, diabetes mellitus or a disabling co-morbidity were excluded.
After giving their written informed consent, patients were assessed at baseline for demographic and clinical characteristics. They were then randomized to receive either glucosamine sulphate or a combination of glucosamine sulphate, Boswellia serrata and curcuminoids twice-daily in a double blind manner for a total period of 90 days. Both the medications were identical in appearance and taste. Treatment of associated disease was allowed at the discretion of the physician. Patients were assessed at baseline and at the end of 90 days. […] VAS was scored from 0 to 10, where 0 indicates no pain/swelling/stiffness and 10 is the worst pain/swelling/stiffness imaginable.
The Western Ontario McMaster Universities Osteoarthritis Index (WOMAC) (8) was used to evaluate pain, stiffness and physical function of the knee. […] Adherence to trial medication was recorded. Adverse events, patient withdrawals and concomitant illnesses were recorded in accordance with good clinical practice guidelines.
The primary outcome measure was the change in VAS and WOMAC assessment of pain and stiffness in the affected knee. Response to treatment was analysed on an intention to treat basis, and the continuous variables were tested for significance by the standard error of difference in means. Categorical data were expressed as percentages with their 95% confidence intervals (CI). […]

[2] = tested on: patients with osteoarthritis of the knee; experiment: Double blind, randomized study in osteoarthritis of the knee: adherence and adverse events; assay type: in vivo, human; settings: 90-day trial, 50 patients randomized to two groups
Experimental: After giving their written informed consent, patients were assessed at baseline for demographic and clinical characteristics. They were then randomized to receive either glucosamine sulphate or a combination of glucosamine sulphate, Boswellia serrata and curcuminoids twice-daily in a double blind manner for a total period of 90 days. Both the medications were identical in appearance and taste. Treatment of associated disease was allowed at the discretion of the physician. Patients were assessed at baseline and at the end of 90 days. Four separate 10 cm visual analogue scales (VAS) were used to measure pain in affected knee at rest, on movement and the patients overall assessment of swelling and morning stiffness. VAS was scored from 0 to 10, where 0 indicates no pain/swelling/stiffness and 10 is the worst pain/swelling/stiffness imaginable.
The Western Ontario McMaster Universities Osteoarthritis Index (WOMAC) (8) was used to evaluate pain, stiffness and physical function of the knee. The pain and stiffness subscales of the WOMAC have scores of 0-20 and 0-8 respectively, with 0 representing no pain or stiffness. […] Adherence to trial medication was recorded. Adverse events, patient withdrawals and concomitant illnesses were recorded in accordance with good clinical practice guidelines.

## N[C@H]1C(O)O[C@H](CO)[C@@H](O)[C@@H]1O.O=S(=O)(O)O (some centres unmarked) [glucosamine sulphate]
[1]
  Mean (95% CI) decrease in VAS score for morning stiffness: 0.13
  Mean (95% CI) decrease in VAS score for pain on use: 0.27
  Mean (95% CI) decrease in VAS score for swelling: 0.45
[2]
  Patients who reported headache: 4 (16.0%) patients (%)
  Patients who reported increase in pain: 3 (12.0%) patients (%)
